In US9364496B2 (ONCOGENEX TECHNOLOGIES INC., priority 2013, dated 2016):
Several values for one entry are separate records, joined by “and”; a condition that tells them apart may be missing. Equal values may be shown once. Entries after “also recorded” stand apart in the source; their conditions may differ. Read-outs that look alike come from different tables or passages of the source. Marks after values point to notes of the source that are not given here. Oligonucleotides are written 5' to 3', each unit as a sugar letter and its base; * is a phosphorothioate linkage, no mark a phosphodiester; rarer units and linkages stand in square brackets, end groups in braces. Plain capitals give the bases only. e = 2'-O-(2-methoxyethyl) (MOE); [5mC] = 5-methylcytosine; d = 2'-deoxy (DNA)

Tests used:
[1] = in vivo
[2] = in vivo; remark: listed apart in the source
breast cancer = format: in vivo, human; conditions: each group; loading doses then custirsen with a chemotherapeutic agent
Description: At least 50 breast cancer patients are separated into two groups.

clusterin = conditions: cited from earlier work
[3] = in vivo; remark: listed apart in the source
[4] = Phase I healthy volunteer study TV1011-DDI-102, 640 mg custirsen; format: in vivo
Description: Three subjects withdrew from the study due to these constitutional symptoms.

[5] = human, in vivo
[6] = Custirsen up-titration with dexamethasone premedication, tolerability and ECG Holter (discussion); conditions: with or without premedication with dexamethasone
lung cancer = format: in vivo, human; conditions: each group; loading doses then custirsen with a chemotherapeutic agent
Description: At least 50 lung cancer patients are separated into two groups.

[7] = test system: RPMI 8226 (human myeloma) xenograft; assay: In vivo activity of custirsen (TV-1011), different doses and regimens with Bortezomib, RPMI 8226 xenograft (Example 15); conditions: for volume / weight / % of baseline (weight) / Δ % (weight) / Δ weight: group 8: TV-1011 30 mg/kg qd*5, 40 mg/kg biwk
Experimental: 120 CB.17 SCID female mice, 4-6 weeks old, 16-20 grams, obtained from Harlan animal breeding center.
Cells (originated from ATCC) were cultured on RPMI medium. Cell suspension was centrifuged and resuspended in 50% Matrigel/HBSS to a final concentration of 7×10^7 cells/ml. The suspension was implanted s.c. in the right flank of the anesthetized mouse at a volume of 100 μl.
Seven ml saline were added to the original vial containing 3.5 mg powder resulting in 0.5 mg/ml. Three ml of this solution were added to 27 ml saline to receive 0.05 mg/ml concentration. […] 28.5 ml of 4 mg/ml were added to 9.5 saline to receive 3 mg/ml.
Mice were implanted subcutaneously, with 7×10^6 RPMI 8226 cells/mouse (in 50% Martigel/HBSS) on Day 0. On day 21, mice were sorted by the optimal average tumor volume (˜130 mm3) and were allocated into eight groups of 10 mice each.
The treatment started on day 21 post implant, 0.2 ml per 20 grams v/w.
[formula] The analysis of weight gain and tumor volume progression was made using one-way ANOVA followed by Tukey post-hoc comparisons.

NSCLC = format: in vivo, human; conditions: each group; loading doses then custirsen with a chemotherapeutic agent
Description: At least 50 NSCLC patients are separated into two groups.

myeloma = format: in vivo, human; conditions: each group; loading doses then custirsen with a chemotherapeutic agent
Description: At least 50 myeloma patients are separated into two groups.

bladder cancer = format: in vivo, human; conditions: each group; loading doses then custirsen with a chemotherapeutic agent
Description: At least 50 bladder cancer patients are separated into two groups.

[8] = TV-1011 alone 30 mg/kg ip qd*5, then 40 mg/kg biwk, day 62
[9] = Day 21 (baseline), group Mean, n 10
[10] = Day 21 (baseline), individual animals
[11] = Day 28 vs Day 21, group Mean, n 10
[12] = Day 28 vs Day 21, individual animals
[13] = Day 33 vs Day 21, group Mean, n 10
[14] = Day 33 vs Day 21, individual animals
[15] = Day 41 vs Day 21, group Mean, n 10
[16] = Day 41 vs Day 21, individual animals
[17] = group mean, n=10, day block 1 of 3
[18] = group mean, n=10, day block 2 of 3
[19] = group mean, n=10, day block 3 of 3
[20] = individual animals, day block 1 of 3
[21] = individual animals, day block 2 of 3
[22] = individual animals, day block 3 of 3

## Custirsen: anti-clusterin antisense oligonucleotide CAGCAGCAGAGTCTTCATCAT, phosphorothioate backbone, 2′-O-methoxyethyl at nucleotides 1-4 and 18-21, 5-methylcytosines at 1, 4, 19 (antisense e[5mC]*eA*eG*e[5mC]*dA*dG*dC*dA*dG*dA*dG*dT*dC*dT*dT*dC*dA*eT*e[5mC]*eA*eT; listed as Homo sapiens)
[1]
  chills, patients: 35%
  fever, patients: 50%
  occurrence of grade 3/4 hepatic toxicity: rare
  severity of fever and chills/rigors: usually mild (grade 1-2)
  time of appearance of fever and chills/rigors after the infusion: 4 to 8 h
[2]
  grade-4 liver toxicity: no reports
  incidence of elevated liver function tests (ELFTs): higher incidence
Breast cancer
  cancer condition of patients: improves
clusterin
  expression of clusterin: potently regulated the expression of clusterin; also recorded: potently reduces the expression of clusterin
clusterin; human prostate, breast, ovarian, lung, renal, bladder, and melanoma cells
  sensitization of cancer cells to chemotherapy: sensitizes
[3]
  incidence of the most common adverse events (fatigue, chills, nausea, pyrexia, etc.): more than 20 % of the patients
  occurrence of grade 3/4 renal toxicity: rare
[4]; human, in vivo
  time of peak of prolonged coagulation parameters after dose: around 48 hours
[4]; most subjects, starting a few hours after the first loading dose
  coagulation parameters (PTT and PT): Slightly prolonged
[4]; multiple 640 mg doses, after the first infusion
  AEs related to custirsen: 93 AEs
[4]; single and repeated doses of 640 mg custirsen, healthy volunteers
  deaths or other SAEs: No deaths or other SAEs were reported; also recorded: no SAEs
[5]
  INR values: ≤ 1.5
  grade 1 increase in PTT, number: 1
  hepatic transaminase elevations: Grade 1 and 2
  incidence of elevated liver function tests (ELFTs): higher incidence
[6]
  effect of up-titration (reduced loading doses) on constitutional syndrome / side effects: mitigated
Lung cancer
  cancer condition of patients: improves
[7]; Custirsen 30 mg/kg qdx5 then 40 mg/kg biwk, alone
  efficacy, in words: very efficacious
[7]; Custirsen with Velcade, maintained vs loading only
  effect of continuous treatment versus loading only: dose-dependent and results in better outcome versus loading only
[7]; TV-1011 alone 30 mg/kg ip qd*5, then 40 mg/kg biwk, day 28
  Max BW (mean) reduction: −0.5%
[7]; [8]
  % TGI: 67%
  No. of CR: 0
  No. of PR: 1
  No. of TRD: 0
  No. og nTRD: 0
  Δ mean tumor volume, (mean ± se): 574 ± 118
[7]; TV-1011 alone 30 mg/kg ip qd*5, then 40 mg/kg biwk, day 62, listed as TV-1011
  % TGI: 67*** %
[7]; [9]
  volume: 129.3
  weight: 18.8
[7]; [10]
  volume: 107 and 113 and 116 and 119 and 123 and 128 and 131 and 138 and 147 and 172
  weight: 21.4 and 17.7 and 20.5 and 15.9 and 19.6 and 20.3 and 17.9 and 16.6 and 20.1 and 17.8
[7]; Day 28, group Mean, n 10
  % of baseline (weight): 99.5%
  volume: 158.1
  weight: 18.7
[7]; Day 28, individual animals
  % of baseline (weight): 98.0% and 104.0% and 102.6% and 95.2% and 96.9% and 94.4% and 103.0% and 98.7% and 98.3%
  volume: 78 and 127 and 114 and 149 and 180 and 204 (2×) and 159 and 175 and 193
  weight: 21.0 and 118.5 and 21.3 and 16.3 and 18.7 and 19.6 and 16.9 and 17.1 and 19.9 and 17.5
[7]; [11]
  Δ % (weight): −0.5%
  Δ weight: −0.1
[7]; [12]
  Δ % (weight): −2.0% and 4.4% and 4.0% and 2.6% and −4.8% and −3.1% and 5.6% and 3.0% and −1.3% and −1.7%
  Δ weight: −0.4 and 0.8 (2×) and 0.4 and −0.9 and −0.6 and −1.0 and 0.5 and −0.3 (2×)
[7]; Day 33, group Mean, n 10
  % of baseline (weight): 101.6%
  volume: 147.0
  weight: 19.1
[7]; Day 33, individual animals
  % of baseline (weight): 97.8% and 108.3% and 108.1% and 95.9% and 94.0% and 101.3% and 98.3% and 105.5% and 99.9% and 107.3%
  volume: 132 and 131 and 120 and 116 and 167 and 157 and 100 and 154 and 206 and 186
  weight: 20.9 and 19.2 and 22.1 and 15.2 and 18.4 and 20.5 and 17.6 and 17.5 and 20.1 and 19.1
[7]; [13]
  Δ % (weight): 1.6%
  Δ weight: 0.3
[7]; [14]
  Δ % (weight): −2.2% and 8.3% and 8.1% and −4.1% and −6.0% and 1.3% and −1.7% and 5.5% and −0.1% and 7.3%
  Δ weight: −0.5 and 1.5 and 1.7 and −0.6 and −1.2 and 0.3 and −0.3 and 0.9 and 0.0 and 1.3
[7]; Day 41, group Mean, n 10
  % of baseline (weight): 106.8%
  volume: 184.3
  weight: 20.0
[7]; Day 41, individual animals
  % of baseline (weight): 101.4% and 112.9% and 111.2% and 108.4% and 102.9% and 102.3% and 105.9% and 112.3% and 106.7% and 103.9%
  volume: 76 and 144 and 140 and 139 and 336 and 249 and 152 and 185 and 223 and 200
  weight: 21.7 and 20.0 and 22.8 and 17.2 and 20.2 and 20.7 and 18.9 and 18.7 and 21.5 and 18.5
[7]; [15]
  Δ % (weight): 6.8%
  Δ weight: 1.2
[7]; [16]
  Δ % (weight): 1.4% and 12.9% and 11.2% and 8.4% and 2.9% and 2.3% and 5.9% and 6.7% and 3.9%
  Δ weight: 0.3 and 2.3 (2×) and 1.3 (2×) and 0.6 and 0.5 and 1.1 and 2.0 and 0.7
[7]; [17]
  % of baseline (weight): 113.8%
  volume: 344.4
  Δ % (weight): 13.8%
  Δ weight: 2.5
[7]; group mean, n=10, day block 1 of 3 (day head not shown)
  weight: 21.3
[7]; [18]
  % of baseline (weight): 109.2%
  volume: 476.6
  weight: 20.4
  Δ % (weight): 9.2%
  Δ weight: 1.7
[7]; [19]
  % of baseline (weight): 111.5%
  volume: 702.9
  weight: 20.9
  Δ % (weight): 11.5%
  Δ weight: 2.1
[7]; [20]
  % of baseline (weight): 108.5% and 116.7% and 112.9% and 120.7% and 110.1% and 107.6% and 114.4% and 123.3% and 115.7% and 108.4%
  volume: 101 and 360 and 268 and 267 and 556 and 581 and 211 and 257 and 451 and 392
  Δ % (weight): 8.5% and 16.7% and 12.9% and 20.7% and 10.1% and 7.6% and 14.4% and 23.3% and 15.7% and 8.4%
  Δ weight: 1.8 and 3.0 and 2.6 (2×) and 3.3 and 2.0 and 1.5 (2×) and 3.9 and 3.2
[7]; individual animals, day block 1 of 3 (day head not shown)
  weight: 23.2 and 20.6 and 23.1 and 19.1 and 21.6 and 21.8 and 20.5 (2×) and 23.3 and 19.3
[7]; [21]
  % of baseline (weight): 103.3% and 116.7% and 109.7% and 122.9% and 103.1% and 104.0% and 106.1% and 114.0% and 108.4% and 103.7%
  volume: 106 and 638 (2×) and 463 and 399 and 767 and 663 and 257 and 246 and 588
  weight: 22.1 and 20.7 and 22.4 and 19.5 and 20.2 and 21.1 and 19.0 (2×) and 21.8 and 18.4
  Δ % (weight): 3.3% and 16.7% and 9.7% and 22.9% and 3.1% and 4.0% and 6.1% and 14.0% and 8.4% and 3.7%
  Δ weight: 0.7 (2×) and 3.0 and 2.0 and 3.6 and 0.6 and 0.8 and 1.1 and 2.3 and 1.7
[7]; [22]
  % of baseline (weight): 105.9% and 121.8% and 111.4% and 118.7% and 106.2% and 107.1% and 106.8% and 119.0% and 112.4% and 106.3%
  volume: 92 and 955 and 891 and 568 and 1324 and 804 and 379 and 273 and 1001 and 742
  weight: 22.7 and 21.5 and 22.8 and 18.8 and 20.8 and 21.7 and 19.1 and 19.8 and 22.6 and 18.9
  Δ % (weight): 5.9% and 21.8% and 11.4% and 18.7% and 6.2% and 7.1% and 6.8% and 19.0% and 12.4% and 6.3%
  Δ weight: 1.3 and 3.9 and 2.3 and 3.0 and 1.2 (2×) and 1.4 and 3.2 and 2.5 and 1.1
NSCLC
  cancer condition of patients: improves
myeloma
  cancer condition of patients: improves
Bladder cancer
  cancer condition of patients: improves
